# Laboratory results from patent publication US20090075978A1, “SUBSTITUTED PROPIOLIC ACID AMIDES AND THEIR USE FOR PRODUCING DRUGS” (Grunenthal GmbH, priority 2005, published 2009).
# Legend:
# mGluR5 receptor (pig) = target: T1, mGluR5 receptor (pig) (Sus scrofa, UniProt I3LUI7); assay: [3H]-MPEP binding in the mGluR5 receptor binding assay (pig brain homogenate); conditions: 5 nM [3H]-MPEP; for IC50: pig brain homogenate; for mGluR5 receptor (pig) (10 μM) Inhibition (%): 10 μM test compound, 450 μg protein from pig brain homogenate, 60 min, room temperature
# T1 construct: 450 μg of protein from brain homogenate is incubated; from tissue; host or cells: pig brain hemispheres without medulla, cerebellum and pons
# Description: I. Method for Determining the Inhibition of [^3H]-MPEP Binding in the mGluR5 Receptor Binding Assay
# Pig brain homogenate is produced by homogenisation (Polytron Pt 3000, Kinematica AG, 10,000 revolutions per minute for 90 seconds) of pig brain hemispheres without medulla, cerebellum and pons in a buffer of pH 8.0 (30 mM Hepes, Sigma, order number H3375+1 tablet Complete Roche Diagnostics, order number 1836145 made up to 100 ml) in a ratio of 1:20 (brain weight/volume) and differential centrifugation at 900×g and 40,000×g. 450 μg of protein from brain homogenate is incubated in each case in 250 μl incubation batches in 96-well microtitre plates with 5 nM ^3[H]-MPEP (Tocris, order number R1212) (MPEP=[…]) and the compounds to be investigated ([…]) in the buffer (as above) at room temperature for 60 min.
# The batches are then filtered with the assistance of a Brandel Cell Harvester (Brandel, Robotic 9600 model) on Unifilter plates with glass filter mats (Perkin Elmer, order number 6005177) and then washed 3 times with buffer (as above) using 250 μl per sample. The filter plates are then dried for 60 min at 55° C. Then 30 μl of Ultima Gold™ scintillating material (Packard BioScience, order number 6013159) is added per well and after 3 hours the samples are measured using the β counter (Microbeta, Perkin Elmer). Nonspecific binding is determined by the addition of 10 μM MPEP (Tocris, order number 1212).
# mGluR5 receptor (human) = target: T2, mGluR5 receptor (human) (Homo sapiens, UniProt P41594); assay: Functional Ca2+ influx assay in the mGluR5 receptor assay (CHO-hmGluR5 cells, DHPG); assay type: cell-based; conditions: 10 μM DHPG, Ki=IC50/(1+(AGconc/EC50))
# T2 construct: host or cells: CHO cells (CHO-hmGluR5), expression induced with doxycycline
# Source text: II. Method for Determining Ca^2+ Influx in the mGluR5 Receptor Assay
# An agonistic and/or antagonistic substance action on the mGluR5 receptor of the rat species may be determined with the following assay. According to this assay, intracellular Ca^2+ release is quantified after activation of the mGluR5 receptor with the assistance of a Ca^2+-sensitive dye (type Fluo-4, Molecular Probes Europe BV, Leiden, Netherlands) in a FlexStation (Molecular Devices, Sunnyvale, USA).
# Description of the Functional Ca^2+ Influx Assay
# 20,000 CHO-hmGluR5 cells/well (Euroscreen, Gosselies, Belgium) are pipetted out into 96 well plates (BD Biosciences, Heidelberg, Germany, Ref. 356640, clear bottom, 96 well, poly-D-lysine) and incubated overnight in HBSS buffer (Gibco No. 14025-050) with the following additives: 10% FCS (GIBCO, 10270-106) and doxycycline (BD Biosciences Clontech 631311 600 ng/ml).
# For the purpose of functional investigation, the cells were loaded with 2 μM Fluo-4 and 0.01 vol. % Pluronic F127 (Molecular Probes Europe BV, Leiden, Netherlands) in HBSS buffer (Hank's buffered saline solution, Gibco Invitrogen GmbH, Karlsruhe, Germany) with Probenicid (Sigma P8761, 0.69 mg/ml) for 30 min at 37° C.
# The cells are then washed 3 times with washing buffer (HBSS buffer, Gibco No. 14025-050, with Probenicid (Sigma P8761, 0.69 [mg]/ml) and then resuspended with the same buffer to make up to 100 μl. After 15 min the plates are transferred for determination of Ca^2+ measurements in the presence of DHPG ((S)-3,5-dihydroxyphenylglycine, Tocris Biotrend Chemikalien GmbH, Cologne, Germany, final DHPG concentration: 10 μM) and in the presence or absence of test substances into a FLuorometric Imaging Plate Reader (FLIPR, Molecular Devices, Sunnyvale, Calif.).
# Ca^2+-dependent fluorescence is measured before and after addition of test substances. Quantification proceeds by measuring the highest fluorescence intensity over time.
# After recording a fluorescence baseline for 10 s, 50 μl of test substance solution (various test substance concentrations in HBSS buffer with 1% DMSO and 0.02% Tween 20, Sigma) are added and the fluorescence signal is measured for 6 min. Then, 50 μl of DHPG solution ((S)-3,5-dihydroxyphenylglycine, Tocris Biotrend Chemikalien GmbH, Cologne, Germany, final DHPG concentration: 10 μM) are added and Ca^2+ influx is simultaneously measured for 60 s. The final DMSO concentration amounts to 0.25% and the final Tween 20 content amounts to 0.005%. The data are analysed with Microsoft Excel and GraphPad Prism. The dose-response curves are calculated with non-linear regression and IC50 values are determined. Each data point is determined in triplicate and IC50 values are averaged from a minimum of 2 independent measurements.
# Ki values are calculated using the following formula: Ki=IC50/(1+(AGconc/EC50)).
# AGconc=10 μM; EC50 corresponds to the DHPG concentration which is necessary for the semimaximal influx of Ca^2+.
# T2 sequence (P41594 21-1212): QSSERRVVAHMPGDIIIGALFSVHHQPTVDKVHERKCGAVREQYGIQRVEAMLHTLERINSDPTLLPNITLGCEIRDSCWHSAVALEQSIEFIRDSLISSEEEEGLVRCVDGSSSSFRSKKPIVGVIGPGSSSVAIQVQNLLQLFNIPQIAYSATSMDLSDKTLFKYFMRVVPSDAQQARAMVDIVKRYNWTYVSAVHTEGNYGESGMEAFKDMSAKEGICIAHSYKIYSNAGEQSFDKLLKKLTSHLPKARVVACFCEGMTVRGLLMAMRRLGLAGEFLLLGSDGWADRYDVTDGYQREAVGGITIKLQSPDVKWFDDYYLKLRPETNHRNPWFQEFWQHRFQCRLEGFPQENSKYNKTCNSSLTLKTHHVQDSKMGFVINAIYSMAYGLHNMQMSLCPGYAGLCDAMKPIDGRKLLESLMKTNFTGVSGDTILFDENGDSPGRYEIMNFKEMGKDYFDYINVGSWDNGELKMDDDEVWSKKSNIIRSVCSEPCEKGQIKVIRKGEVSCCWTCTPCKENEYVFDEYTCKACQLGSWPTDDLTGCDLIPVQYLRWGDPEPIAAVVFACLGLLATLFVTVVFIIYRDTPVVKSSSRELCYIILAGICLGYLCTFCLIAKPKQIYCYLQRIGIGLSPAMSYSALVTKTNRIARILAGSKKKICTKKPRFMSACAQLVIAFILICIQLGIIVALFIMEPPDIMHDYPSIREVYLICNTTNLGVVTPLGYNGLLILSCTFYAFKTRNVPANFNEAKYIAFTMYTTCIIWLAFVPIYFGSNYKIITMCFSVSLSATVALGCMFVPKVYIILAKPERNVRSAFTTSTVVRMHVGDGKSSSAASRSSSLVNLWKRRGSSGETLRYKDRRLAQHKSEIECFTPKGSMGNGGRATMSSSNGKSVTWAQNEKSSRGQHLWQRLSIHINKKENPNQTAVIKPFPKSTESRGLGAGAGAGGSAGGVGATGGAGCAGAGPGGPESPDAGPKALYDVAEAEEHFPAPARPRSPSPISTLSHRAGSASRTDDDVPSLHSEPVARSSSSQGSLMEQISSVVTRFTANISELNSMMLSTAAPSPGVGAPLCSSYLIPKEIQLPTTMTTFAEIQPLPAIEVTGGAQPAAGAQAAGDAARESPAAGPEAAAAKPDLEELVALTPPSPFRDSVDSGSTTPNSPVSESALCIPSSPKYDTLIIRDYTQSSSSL
# T1 sequence (I3LUI7 19-1212): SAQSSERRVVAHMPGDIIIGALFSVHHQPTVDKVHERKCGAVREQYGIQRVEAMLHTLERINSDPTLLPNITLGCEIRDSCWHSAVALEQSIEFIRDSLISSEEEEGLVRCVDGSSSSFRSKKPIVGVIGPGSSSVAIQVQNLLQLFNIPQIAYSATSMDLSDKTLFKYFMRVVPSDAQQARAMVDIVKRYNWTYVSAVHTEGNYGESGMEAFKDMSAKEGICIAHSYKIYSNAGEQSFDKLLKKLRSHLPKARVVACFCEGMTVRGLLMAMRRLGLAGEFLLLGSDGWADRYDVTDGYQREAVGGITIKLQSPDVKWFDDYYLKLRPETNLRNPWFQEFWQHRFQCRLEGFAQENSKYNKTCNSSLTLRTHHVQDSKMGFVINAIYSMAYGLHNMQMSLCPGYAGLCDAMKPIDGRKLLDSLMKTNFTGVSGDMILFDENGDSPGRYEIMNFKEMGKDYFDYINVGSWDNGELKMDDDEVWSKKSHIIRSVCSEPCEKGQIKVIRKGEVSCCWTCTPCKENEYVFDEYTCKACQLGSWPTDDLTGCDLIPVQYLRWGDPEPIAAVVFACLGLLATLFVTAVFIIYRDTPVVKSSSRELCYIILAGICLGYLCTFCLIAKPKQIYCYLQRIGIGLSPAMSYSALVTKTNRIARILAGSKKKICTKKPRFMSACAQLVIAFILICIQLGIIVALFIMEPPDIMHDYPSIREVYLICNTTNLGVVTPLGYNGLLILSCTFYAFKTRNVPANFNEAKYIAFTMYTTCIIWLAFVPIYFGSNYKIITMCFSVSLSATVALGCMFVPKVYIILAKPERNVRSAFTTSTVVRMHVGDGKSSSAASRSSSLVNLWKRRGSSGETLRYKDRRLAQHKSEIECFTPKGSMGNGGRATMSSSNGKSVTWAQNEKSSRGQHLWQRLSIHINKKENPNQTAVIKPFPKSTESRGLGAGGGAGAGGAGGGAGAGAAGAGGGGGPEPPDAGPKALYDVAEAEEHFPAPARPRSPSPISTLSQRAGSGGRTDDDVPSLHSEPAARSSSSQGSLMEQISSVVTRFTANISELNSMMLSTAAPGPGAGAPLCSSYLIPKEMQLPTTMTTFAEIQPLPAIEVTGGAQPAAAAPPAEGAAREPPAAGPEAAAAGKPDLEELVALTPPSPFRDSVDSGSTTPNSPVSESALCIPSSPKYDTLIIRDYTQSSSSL
Compound,IC50 (mGluR5 receptor (pig)),Ki (mGluR5 receptor (human)),mGluR5 receptor (pig) (10 μM) Inhibition (%) (mGluR5 receptor (pig))
"O=C(C#Cc1ccccc1)N1CCc2ccccc2C1 [Example 1, 2-(3-phenyl-propiolyl)-1,2,3,4-tetrahydro-isoquinoline]",180 nM,11.5 nM,
"O=C(C#Cc1cccc(Cl)c1)N1CCc2ccccc2C1 [Example 5, 2-(3-(3-chlorophenyl)-propiolyl)-1,2,3,4-tetrahydro-isoquinoline]",23 nM,1 nM,
"O=C(C#Cc1cccc(Cl)c1)N1CCc2ccccc2CC1 [Example 12, 3-(3-(3-chlorophenyl)-propiolyl)-1,2,4,5-tetrahydrobenzo[d]azepine]",23 nM,0.3 nM,
"CC1Cc2ccccc2CN1C(=O)C#Cc1cccc(Cl)c1 (centres unmarked) [Example 19, 2-(3-(3-chlorophenyl)-propiolyl)-3-methyl-1,2,3,4-tetrahydro-isoquinoline]",53 nM,4.9 nM,
"COc1cccc2c1CCN(C(=O)C#Cc1cccc(Cl)c1)C2 [Example 30, 2-(3-(3-chlorophenyl)-propiolyl)-5-methoxy-1,2,3,4-tetrahydro-isoquinoline]",1.5 nM,0.9 nM,
"Cc1cccc(C#CC(=O)N2c3ccccc3CC2C)c1C (centres unmarked) [Example 46, 1-(3-(2,3-dimethylphenyl)-propiolyl)-2-methyl-indoline]",,,18%
"CC1Cc2ccccc2N1C(=O)C#Cc1ccc(Cl)cc1Cl (centres unmarked) [Example 50, 1-(3-(2,4-dichlorophenyl)-propiolyl)-2-methyl-indoline]",,,16%
"Cc1cccc(C#CC(=O)N2CCc3ccccc3C2)c1 [Example 51, 2-(3-(3-tolyl)-propiolyl)-1,2,3,4-tetrahydro-isoquinoline]",,,103%
"Cc1cccc(C#CC(=O)N2c3ccccc3CC2C)c1 (centres unmarked) [Example 52, 1-(3-(3-tolyl)-propiolyl)-2-methyl-indoline]",,,68%
"COc1ccc(C#CC(=O)N2CCc3ccccc3C2)cc1 [Example 53, 2-(3-(4-methoxyphenyl)-propiolyl)-1,2,3,4-tetrahydro-isoquinoline]",,,24%
"COc1ccc(C#CC(=O)N2c3ccccc3CC2C)cc1 (centres unmarked) [Example 54, 1-(3-(4-methoxyphenyl)-propiolyl)-2-methyl-indoline]",,,46%
"O=C(C#Cc1cccs1)N1CCc2ccccc2C1 [Example 55, 2-(3-(2-thienyl)-propiolyl)-1,2,3,4-tetrahydro-isoquinoline]",,,86%
"CC1Cc2ccccc2N1C(=O)C#Cc1cccs1 (centres unmarked) [Example 56, 1-(3-(2-thienyl)-propiolyl)-2-methyl-indoline]",,,48%
"Cc1ccc(C#CC(=O)N2CCCc3ccccc32)cc1 [Example 57, 1-(3-(4-tolyl)-propiolyl)-1,2,3,4-tetrahydro-quinoline]",,,18%
"Cc1ccc(C#CC(=O)N2c3ccccc3CC2C)c(C)c1 (centres unmarked) [Example 63, 1-(3-(2,4-dimethylphenyl)-propiolyl)-2-methyl-indoline]",,,34%
"O=C(C#Cc1ccc(F)cc1)N1CCc2ccccc2C1 [Example 64, 2-(3-(4-fluorophenyl)-propiolyl)-1,2,3,4-tetrahydro-isoquinoline]",,,88%
"CC1Cc2ccccc2N1C(=O)C#Cc1ccc(F)cc1 (centres unmarked) [Example 65, 1-(3-(4-fluorophenyl)-propiolyl)-2-methyl-indoline]",,,34%
"CC1Cc2ccccc2N1C(=O)C#Cc1cccc(Cl)c1 (centres unmarked) [Example 66, 1-(3-(3-chlorophenyl)-propiolyl)-2-methyl-indoline]",,,70%
"Cc1ccc(C#CC(=O)N2CCc3ccccc3C2)cc1F [Example 67, 2-(3-(3-fluoro-4-methylphenyl)-propiolyl)-1,2,3,4-tetrahydro-isoquinoline]",,,12%
"Cc1ccc(C#CC(=O)N2c3ccccc3CC2C)cc1F (centres unmarked) [Example 68, 1-(3-(3-fluoro-4-methylphenyl)-propiolyl)-2-methyl-indoline]",,,11%
"Cc1ccc(C#CC(=O)N2CCc3ccccc3C2)cc1C [Example 71, 2-(3-(3,4-dimethylphenyl)-propiolyl)-1,2,3,4-tetrahydro-isoquinoline]",,,43%
"Cc1ccc(C#CC(=O)N2c3ccccc3CC2C)cc1C (centres unmarked) [Example 72, 1-(3-(3,4-dimethylphenyl)-propiolyl)-2-methyl-indoline]",,,25%
"COc1ccc(Br)c(C#CC(=O)N2c3ccccc3CC2C)c1 (centres unmarked) [Example 73, 1-(3-(2-bromo-5-methoxyphenyl)-propiolyl)-2-methyl-indoline]",,,45%
"Cc1ccccc1C#CC(=O)N1c2ccccc2CC1C (centres unmarked) [Example 74, 1-(3-(2-tolyl)-propiolyl)-2-methyl-indoline]",,,12%
"CC1Cc2ccccc2N1C(=O)C#Cc1ccccc1C(F)(F)F (centres unmarked) [Example 75, 1-(3-(2-trifluoromethylphenyl)-propiolyl)-2-methyl-indoline]",,,45%
"N#Cc1ccccc1C#CC(=O)N1CCc2ccccc2C1 [Example 76, 2-(3-(2-cyano-phenyl)-propiolyl)-1,2,3,4-tetrahydro-isoquinoline]",,,26%
"N#Cc1cccc(C#CC(=O)N2CCc3ccccc3C2)c1 [Example 77, 2-(3-(3-cyano-phenyl)-propiolyl)-1,2,3,4-tetrahydro-isoquinoline]",,,90%
